Laboratory results published in patent US20070167408A1, “NOVEL ALKYL PHOSPHOLIPID DERIVATIVES WITH REDUCED CYTOTOXICITY AND USES THEREOF” (ZENTARIS GmbH, priority 2005, published 2007).
Converted amounts (≈) assume the structure as drawn.

Experiments:
[1] = test system: Trypanosoma cruzi (Tulahuan-LACZ amstigotes in PEM); test: In vitro drug activity assay, protozoon A; format: cell-based; settings: amastigotes in murine peritoneal macrophages, 3 days
Description: (§1) In vitro activity of selected compounds of the invention against different protozoa was assessed as follows.
Murine (CD1) peritoneal macrophages were harvested 24 hours after starch induction and dispensed into 96-well plates at a concentration of 4×10^5 mL. After 24 hours, the cells were infected with Trypanosoma cruzi Tulahuan LAC-Z amastigotes (grown and cultured according to Buckner et al., Infection and Immunity 1999, 67(1): 403-409). 24 hours later, the infected cells were exposed to the test compounds (compounds of the invention as well as known prior art compounds) for 3 days and 50 μL of 500 μM CPRG-1% Nonidet P-40 was added to each well. The plates were read after 2 to 5 hours at 570 nm (Buckner et al., Antimicrobial Agents and Chemotherapy 1996, 40(11): 2592-2597). ED50 values were calculated with Msxlfit (IDBS).
(§2) The following protozoa were assessed: • A) Trypanosoma cruzi (Tulahuan-LACZ amstigotes in PEM, Lorente S O et al., Antimicrobial agents and chemotherapy 2004, 48(8): 2937-2950; Buckner et al., Infection and Immunity 1999, 67(1): 403-409; Buckner et al., Antimicrobial Agents and Chemotherapy 1996, 40(11): 2592-2597) • B) Trypanosoma brucei rhodesiense (strain STIB900, Lorente S O et al., Antimicrobial agents and chemotherapy 2004, 48(8): 2937-2950; Habtemariam S, BMC Pharmacology 2003, 3:6) • C) Plasmodium falciparum (strain K1, Korsinczky M et al., Antimicrobial agents and chemotherapy 2000, 44(8): 2100-2108; Thaitong S and Beale G H, Trans. R. Soc. Trop. Med. Hyg. 1981, 75: 271-273; Trager W and Jensen J B, Science 1976, 193: 673-675) • D) Plasmodium faiciparum (strain 3D7, Mu et al., PLoS Biology 2005, 3(10): e335)

[2] = test system: Trypanosoma brucei rhodesiense (strain STIB900); test: In vitro drug activity assay, protozoon B; format: cell-based; settings: bloodstream form trypomastigotes, 72 hours, Alamar Blue
Description: as §1
Trypanosoma brucei rhodesiense STIB900 bloodstream form trypomastigotes were maintained in HMI-18 medium (Hirumi H, Hirumi K, J Parasitol. 1989, 75(6):985-989) with 15% heat-inactivated fetal calf serum at 37° C., 5% CO2, humidified atmosphere. Trypomastigotes were washed and resuspended in fresh medium at a concentration of 2×10^5 mL. Test compounds were given to the trypomastigotes and plates were incubated for 72 hours at 37° C., 5% CO2, humidified atmosphere. At 72 hours the plates were assessed microscopically before Alamar Blue was added (Raz et al., Acta Trop. 1997, 68: 139-147). Plates were read after 5 to 6 hours at EX/EM 530/585 nm with a filter cutoff at 550 nm. ED50 values were calculated with Msxlfit (IDBS).
as §2

[3] = test system: Plasmodium falciparum (strain K1); test: In vitro drug activity assay, protozoon C; format: cell-based; settings: strain K1, 3[H]-hypoxanthine method
Description: as §1
(§3) Plasmodium falciparum strain K1 and strain 3D7 parasites were cultured according to Trager W and Jensen J B (Science 1976, 193: 673-675). In vitro drug susceptibility assays with the test compounds were carried out according to Korsinczky M et al. (Antimicrobial agents and chemotherapy 2000, 44(8): 2100-2108) and Fivelman Q L et al. (Antimicrobial agents and chemotherapy 2004, 48(11): 4097-4102) using a ^3[H]-hypoxanthine radioisotope method. ED50 values were calculated with Msxlfit (IDBS).
as §2

[4] = test system: Plasmodium faiciparum (strain 3D7); test: In vitro drug activity assay, protozoon D; format: cell-based, Plasmodium falciparum; settings: strain 3D7, 3[H]-hypoxanthine method
Description: as §1, §3, §2

[5] = test system: Aspergillus fumigatus ATCC 204305; test: Anti-fungal broth microdilution (MIC), fungus A; format: cell-based; settings: Aspergillus fumigatus, ATCC204305; filamentous protocol, more than 50% growth inhibition, 48 to 72 h
Description: (§4) Anti-fungal activity of selected compounds of the invention was assessed by means of anti-fungal susceptibility tests as follows.
(§5) The antifungal activities of the compounds of the invention against different fungi were measured according to standard broth microdilution methods of the US National Committee for Clinical Laboratory standards (NCCLS) for yeasts (NCCLS document M27-A, 1997) and filamentous fungi (NCCLS document M38-A, 2002).
(§6) Stock solutions of compounds of the invention were freshly prepared on the days of experiments equal to 1.28 mg/10 ml media. Serial dilutions were performed to achieve the following testing concentrations: 64 μg/ml, 32 μg/ml, 16 μg/ml, 8 μg/ml, 4 μg/ml, 2 μg/ml, 1 μg/ml, 0.5 μg/ml, 0.25 μg/ml and 0.125 μg/ml.
(§7) An inoculum of 10^6 CFU/ml of the fungi strain was prepared in the appropriate medium and transferred to test tubes for incubation.
(§8) The method is used to determine the minimum inhibitory concentrations (MIC) of drugs on fungi strains. […] For the filamentous fungi protocol, MIC determination took place after 48 to 72 h of culture at 35° C. and was defined at that concentration which produced more than 50% visible growth inhibition.

[6] = test system: Aspergillus fumigatus 322-384; test: Anti-fungal broth microdilution (MIC), fungus B; format: cell-based; settings: Aspergillus fumigatus, 322384; filamentous protocol, more than 50% growth inhibition, 48 to 72 h
Description: as §4, §5, §6, §7, §8

[7] = test system: Aspergillus fumigatus 040-200167; test: Anti-fungal broth microdilution (MIC), fungus C; format: cell-based; settings: Aspergillus fumigatus, 040200167; filamentous protocol, more than 50% growth inhibition, 48 to 72 h
Description: as §4, §5, §6, §7, §8

[8] = test system: Candida albicans ATCC 10231; test: Anti-fungal broth microdilution (MIC), fungus D; format: cell-based; settings: yeast protocol, more than 80% inhibition, 48 h
Description: as §4, §5, §6, §7, §8

[9] = test system: Candida albicans ATCC 90028; test: Anti-fungal broth microdilution (MIC), fungus E; format: cell-based; settings: yeast protocol, more than 80% inhibition, 48 h
Description: as §4, §5, §6, §7, §8

[10] = test system: Candida albicans TS3; test: Anti-fungal broth microdilution (MIC), fungus F; format: cell-based; settings: yeast protocol, more than 80% inhibition, 48 h
Description: as §4, §5, §6, §7, §8

[11] = test system: Candida parapsilosis ATCC 22019; test: Anti-fungal broth microdilution (MIC), fungus G; format: cell-based; settings: yeast protocol, more than 80% inhibition, 48 h
Description: as §4, §5, §6, §7, §8

[12] = test system: Cryptococcus neoformans ATCC 90112; test: Anti-fungal broth microdilution (MIC), fungus H; format: cell-based; settings: yeast protocol, more than 80% inhibition, 48 h
Description: as §4, §5, §6, §7, §8

[13] = test system: Cryptococcus neoformans H99; test: Anti-fungal broth microdilution (MIC), fungus I; format: cell-based; settings: yeast protocol, more than 80% inhibition, 48 h
Description: as §4, §5, §6, §7, §8

[14] = test system: Cryptococcus gattii ATCC 32608; test: Anti-fungal broth microdilution (MIC), fungus J; format: cell-based; settings: yeast protocol, more than 80% inhibition, 48 h
Description: as §4, §5, §6, §7, §8

[15] = test system: epimastigotes of Trypanosoma cruzi strain Y; test: In vitro activity of miltefosine and benznidazole against epimastigotes; format: cell-based; settings: 72 h
Description: In vitro activity of Miltefosine and Benznidazole in the course of a combination treatment against Trypanosoma cruzi strain Y was assessed compared to the respective single treatments with miltefosine or benznidazole alone.
Miltefosine and Benznidazol were tested in vitro in combination against epimastigote forms of Trypanosoma cruzi strain Y which were isolated from a chagasic patient in Sao Paulo, Brazil and obtained from Dr. Victor Nussenzweig (Silva, L H. and Nussenzweig, V.; Folia clin. biol., 20: 191-207, 1953). This T. cruzi Y strain can also be ordered at ATCC 50832, while the ATCC strain must be re-adapted by several passages through mice in order to regain the strain's original characteristics of differentiation and virulence.
Epimastigotes were axenially cultured in brain heart infusion medium (BHI, Becton, Dickinson, Cat. No. 221812) supplemented with 10 mg of hemin per liter and 5% heat inactivated fetal calf serum (FCS) at 28° C. with shaking (˜80 rpm) up to a maximum of 10-12 passages, before the cultures were aged to obtain metacyclics that were purified on a DE-52 column (Whatman DEAE cellulose ion exchange column, Waco, Cat. No. 17050-03 or 17050-04) and injected into mice. After 2-4 weeks parasites were recovered from blood and placed back into axenic culture.
Stock solutions of Miltefosine and Benznidazol in concentrations of 10 mg/ml and 20 mg/ml dissolved in methanol were used. Stock solutions were serially diluted with a factor of 2 in BHI-FCS medium. For Benznidazol the following testing concentrations were used: 80 μg/ml, 40 μg/ml, 20 μg/ml, 10 μg/ml, 5 μg/ml and 2.5 μg/ml. The testing concentrations for Miltefosine were 20 μg/ml, 10 μg/ml, 5 μg/ml, 2.5 μg/ml, 1.25 μg/ml and 0.625 μg/ml.
2×10^6 epimastigotes were incubated in BHI-FCS medium with Miltefosine and Benznidazol in a final volume of 200 μl. After 72 h incubation at 28° C., parasite growth was determined by direct counting the number of parasites with a Neubauer chamber. The 50% inhibitory concentrations were determined by linear regression analysis.

| SMILES | ED50 (μg/mL), protozoon A [1] [µg/mL] | ED50 (μg/mL), protozoon B [2] [µg/mL] | ED50 (μg/mL), protozoon C [3] [µg/mL] | ED50 (μg/mL), protozoon D [4] [µg/mL] | MIC [5] [µg/mL] | MIC [6] [µg/mL] | MIC [7] [µg/mL] | MIC [8] [µg/mL] | MIC [9] [µg/mL] | MIC [10] [µg/mL] | MIC [11] [µg/mL] | MIC [12] [µg/mL] | MIC [13] [µg/mL] | MIC [14] [µg/mL] | Epimastigotes [amount/mL] ([15]; benznidazole 5 ug/mL) | Epimastigotes [amount/mL] ([15]; benznidazole 10 ug/mL) | Epimastigotes [amount/mL] ([15]; benznidazole 40 ug/mL) |
| --- | --- | --- | --- | --- | --- | --- | --- | --- | --- | --- | --- | --- | --- | --- | --- | --- | --- |
| CCCCCCCCCCCCCCCCOP(=O)([O-])OC1CC[N+](C)(CCc2ccccc2)CC1 (stereo not shown) [Compound 4, Phosphoric acid hexadecyl ester 1-methyl-1-phenethyl-piperidin-4-yl ester] | 1.93 (≈ 3.69 µM) | 12.29 (≈ 23.5 µM) | 5.44 (≈ 10.4 µM) | 15.32 (≈ 29.3 µM) |  |  |  |  |  |  |  |  |  |  |  |  |  |
| CCCCCCCCCCCCCCCCCCOP(=O)([O-])OC1CC[N+](CC)(CC)CC1 [Compound 5, Phosphoric acid 1,1-diethyl-piperidin-4-yl ester octadecyl ester] | 1.43 (≈ 2.92 µM) | 14.20 (≈ 29 µM) | 21.26 (≈ 43.4 µM) | 16.31 (≈ 33.3 µM) | 6 (≈ 12.3 µM) | 8 (≈ 16.3 µM) | 24 (≈ 49 µM) | 2 (≈ 4.08 µM) | 2 (≈ 4.08 µM) | 2 (≈ 4.08 µM) | 3 (≈ 6.13 µM) | 1.5 (≈ 3.06 µM) | 2 (≈ 4.08 µM) | 0.75 (≈ 1.53 µM) |  |  |  |
| O=C(Cn1ccnc1[N+](=O)[O-])NCc1ccccc1 [benznidazole, N-Benzyl-2-nitroimidazol-1-yl-acetamide] | 0.22 (≈ 0.845 µM) |  |  |  |  |  |  |  |  |  |  |  |  |  | 455.833 | 358.333 | 190.000 |
